# Measured values taken from ChEMBL document CHEMBL4190224, “Xanthohumol Blocks Proliferation and Migration of Vascular Smooth Muscle Cells in Vitro and Reduces Neointima Formation in Vivo” (J Nat Prod, 2017).
# The source made the active and inactive calls. No cut-off for these calls is given here.
# What was measured:
# VSMC [1] = assay: Inhibition of PDGF-BB-induced rat VSMC proliferation preincubated for 30 mins followed by PDGF-BB addition measured after 48 hrs by resazurin assay; assay type: functional, cell-based
# Mus musculus = assay: Inhibition of cuff-induced restenosis in C57BL/6 mouse femoral artery cuff model assessed as reduction in neointima formation dosed via local application using compound dissolved on F-127 gel measured after 2 weeks by hematoxylin and eosin staining-based microscopic analysis; assay type: functional, organism-based
# VSMC [2] = assay: Cytotoxicity against rat VSMC at 1 to 15 uM after 48 hrs by LDH release assay; assay type: cell-based
# VSMC [3] = assay: Antimigratory activity against PDGF-BB-stimulated rat VSMC at 15 uM preincubated for 30 mins followed by PDGF-BB addition measured after 20 hrs by scratch wound-healing assay; assay type: functional, cell-based
smiles,measurement,setting,value
COc1cc(O)c(CC=C(C)C)c(O)c1C(=O)/C=C/c1ccc(O)cc1 [XANTHOHUMOL],IC50,VSMC [1],3.49 µM
same,inhibition,VSMC [1],Dose-dependent effect
same,Activity,Mus musculus,Active
same,Activity,VSMC [2],Non-Toxic
same,Activity,VSMC [3],Active
